Test results from patent US7834023B2 (Portola Pharmaceuticals, Inc., priority 2006, dated 2010).

Legend:
[1] = target: T1, P2Y12 receptor (Homo sapiens, UniProt Q9H244); test: platelet ADP receptor binding assay (ARB): inhibition of [3H]2-MeS-ADP binding to platelets; conditions: [3H]2-MeS-ADP binding to apyrase-washed human platelets
T1 construct: endogenous in cells; host or cells: human platelets (outdated from blood banks or fresh), apyrase-washed, whole
Summary of the method: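 Apyrase-washed human platelets (1×10^8 per well) were preincubated 5 min with serial compound dilutions in Hepes-Tyrode's/0.1% BSA/0.6% DMSO, then incubated 15 min at room temperature with 1 nM [3H]2-MeS-ADP. Filter-bound radioactivity gave specific binding (nonspecific: 10 μM 2-MeS-ADP), and IC50s came from non-linear regression.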

[2] = system: human platelet-rich plasma (PRP); test: PRP assay: inhibition of ADP-mediated platelet aggregation in vitro; format: cell-based; conditions: ADP-induced aggregation
Procedure: The effect of testing the compound according to the invention on ADP-induced human platelet aggregation was assessed in a 96-well microtiter assay (see generally the procedures in Jantzen, H. M. et al. (1999) Thromb. Hemost. 81:111-117) or standard cuvette light transmittance aggregometry using either human platelet-rich plasma (PRP) or human washed platelets.
For preparation of human platelet-rich plasma for aggregation assays, human venous blood was collected from healthy, drug-free volunteers into 0.38% sodium citrate (0.013 M, pH 7.0 final). Platelet-rich plasma (PRP) is prepared by centrifugation of whole blood at 160×g for 20 minutes at room temperature. The PRP layer is removed, transferred to a new tube, and the platelet count is adjusted, if necessary, to achieve a platelet concentration of ˜3×10^8 platelets/ml using platelet-poor plasma (PPP). PPP is prepared by centrifugation of the remaining blood sample (after removal of PRP) for 20 minutes at 800×g. This preparation of PRP can subsequently be used for aggregation assays in either a 96-well plate or standard cuvette aggregometry.
For cuvette light transmittance aggregation assays, serial dilutions (1:3) of test compounds were prepared in 100% DMSO in a 96 well V-bottom plate (final DMSO concentration in the cuvette was 0.6%). The test compound (3 μl of serial dilutions in DMSO) was preincubated with PRP for 30-45 seconds prior to initiation of aggregation reactions, which were performed in a ChronoLog aggregometer by addition of agonist (5 or 10 μM ADP) to 490 μL of PRP at 37° C. In some cases, light transmittance aggregometry was performed using 490 μL of washed platelets (prepared as described above) at 37° C., and aggregation was initiated by addition of 5 μM ADP and 0.5 mg/ml human fibrinogen (American Diagnostics, Inc., Greenwich, Conn.). The aggregation reaction is recorded for ˜5 min, and maximum extent of aggregation is determined by the difference in extent of aggregation at baseline, compared to the maximum aggregation that occurs during the five minute period of the assay. Inhibition of aggregation was calculated as the maximum aggregation observed in the presence of inhibitor, compared to that in the absence of inhibitor. IC50s were derived by non-linear regression analysis using the Prism software (GraphPad, San Diego, Calif.).
Inhibition of ADP-dependent aggregation was also determined in 96-well flat-bottom microtiter plates using a microtiter plate shaker and plate reader similar to the procedure described by Frantantoni et al., Am. J. Clin. Pathol. 94, 613 (1990). All steps are performed at room temperature. For 96-well plate aggregation using platelet-rich plasma (PRP), the total reaction volume of 0.2 ml/well includes 180 μl of PRP (˜3×10^8 platelets/ml, see above), 6 μl of either serial dilution of test compounds in 20% DMSO or buffer (for control wells), and 10 μl of 20×ADP agonist solution (100 μM). The OD of the samples is then determined at 450 nm using a microtiter plate reader (Softmax, Molecular Devices, Menlo Park, Calif.) resulting in the 0 minute reading. The plates are then agitated for 5 min on a microtiter plate shaker and the 5 minute reading is obtained in the plate reader. Aggregation is calculated from the decrease of OD at 450 nm at t=5 minutes compared to t=0 minutes and is expressed as % of the decrease in the ADP control samples after correcting for changes in the unaggregated control samples. IC50s were derived by non-linear regression analysis.

T1 sequence (Q9H244 whole entry): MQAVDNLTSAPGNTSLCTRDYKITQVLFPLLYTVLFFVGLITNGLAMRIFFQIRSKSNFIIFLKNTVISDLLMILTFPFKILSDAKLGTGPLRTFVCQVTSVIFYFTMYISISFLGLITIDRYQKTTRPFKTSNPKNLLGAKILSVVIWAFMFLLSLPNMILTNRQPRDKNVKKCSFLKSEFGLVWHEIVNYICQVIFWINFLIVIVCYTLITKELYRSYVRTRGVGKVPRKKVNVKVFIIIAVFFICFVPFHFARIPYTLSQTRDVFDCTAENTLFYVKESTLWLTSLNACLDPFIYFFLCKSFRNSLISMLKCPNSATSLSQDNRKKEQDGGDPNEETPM

## CNc1cc2ccn(-c3ccc(CNC(C(=O)O)c4ccc(Cl)s4)cc3)c(=O)c2cc1F (stereo not shown) [Compound 115, 2-(5-chlorothiophen-2-yl)-2-(4-(7-fluoro-6-(methylamino)-1-oxoisoquinolin-2(1H)-yl)benzylamino)acetic acid]
[1]
  IC50: 0.05 to 0.5 µM
[2]; Homo sapiens, Platelet
  IC50: > 30 µM

## CNc1cc2[nH]c(=O)n(-c3ccc(C(=O)NC(C(=O)O)c4ccc(Cl)s4)c(F)c3)c(=O)c2cc1F (stereo not shown) [Compound 44, 2-(5-chlorothiophen-2-yl)-2-(2-fluoro-4-(6-fluoro-7-(methylamino)-2,4-dioxo-1,2-dihydroquinazolin-3(4H)-yl)benzamido)acetic acid]
[1]
  IC50: 0.05 to 0.5 µM
[2]; Homo sapiens, Platelet
  IC50: 10 to 30 µM

## CNc1cc2[nH]c(=O)n(-c3ccc(C(=O)NC(C(=O)O)c4ccc(Cl)s4)cc3)c(=O)c2cc1F (stereo not shown) [Compound 13, 2-(5-chlorothiophen-2-yl)-2-(4-(6-fluoro-7-(methylamino)-2,4-dioxo-1,2-dihydroquinazolin-3(4H)-yl)benzamido)acetic acid]
[1]
  IC50: 0.05 to 0.5 µM
[2]; Homo sapiens, Platelet
  IC50: < 10 µM

## CNc1cc2[nH]c(=O)n(-c3ccc(C(=O)N[C@H](c4noc(=O)[nH]4)c4ccc(Cl)s4)cc3)c(=O)c2cc1F [Compound 46, (R)-N-((5-chlorothiophen-2-yl)(5-oxo-4,5-dihydro-1,2,4-oxadiazol-3-yl)methyl)-4-(6-fluoro-7-(methylamino)-2,4-dioxo-1,2-dihydroquinazolin-3(4H)-yl)benzamide]
[1]
  IC50: 0.05 to 0.5 µM
[2]; Homo sapiens, Platelet
  IC50: 10 to 30 µM

## CNc1cc2ccn(-c3ccc(C(=O)NC(c4nnn[nH]4)c4ccc(Cl)s4)cc3)c(=O)c2cc1F (stereo not shown) [Compound 91, N-((5-chlorothiophen-2-yl)(1H-tetrazol-5-yl)methyl)-4-(7-fluoro-6-(methylamino)-1-oxoisoquinolin-2(1H)-yl)benzamide]
[1]
  IC50: < 0.05 µM
[2]; Homo sapiens, Platelet
  IC50: 10 to 30 µM

## CNc1cc2[nH]c(=O)n(-c3ccc(C(=O)NC(c4noc(=O)[nH]4)c4ccc(Cl)s4)cc3OC)c(=O)c2cc1F (stereo not shown) [Compound 53, N-((5-chlorothiophen-2-yl)(5-oxo-4,5-dihydro-1,2,4-oxadiazol-3-yl)methyl)-4-(6-fluoro-7-(methylamino)-2,4-dioxo-1,2-dihydroquinazolin-3(4H)-yl)-3-methoxybenzamide]
[1]
  IC50: 0.05 to 0.5 µM
[2]; Homo sapiens, Platelet
  IC50: > 30 µM

## CNc1cc2[nH]c(=O)n(-c3ccc(C(=O)N(CC(=O)O)Cc4ccc(Cl)s4)cc3)c(=O)c2cc1F [Compound 6, 2-(N-((5-chlorothiophen-2-yl)methyl)-4-(6-fluoro-7-(methylamino)-2,4-dioxo-1,2-dihydroquinazolin-3(4H)-yl)benzamido)acetic acid]
[1]
  IC50: 0.05 to 0.5 µM
[2]; Homo sapiens, Platelet
  IC50: > 30 µM

## CNc1cc2c(cc1F)C(=O)N(c1ccc(C(=O)NC(c3noc(=S)[nH]3)c3ccc(Cl)s3)cc1)CO2 (stereo not shown) [Compound 75, N-((5-chlorothiophen-2-yl)(5-thioxo-4,5-dihydro-1,2,4-oxadiazol-3-yl)methyl)-4-(6-fluoro-7-(methylamino)-4-oxo-2H-benzo[e][1,3]oxazin-3(4H)-yl)benzamide]
[1]
  IC50: < 0.05 µM
[2]; Homo sapiens, Platelet
  IC50: 10 to 30 µM

## O=C(NC(C(=O)O)c1cccs1)c1ccc(-n2c(=O)[nH]c3cc(NCc4ccc(F)cc4)ccc3c2=O)cc1 (stereo not shown) [Compound 2, 2-(4-(7-(4-fluorobenzylamino)-2,4-dioxo-1,2-dihydroquinazolin-3(4H)-yl)benzamido)-2-(thiophen-2-yl)acetic acid]
[1]
  IC50: 0.05 to 0.5 µM
[2]; Homo sapiens, Platelet
  IC50: > 30 µM

## CNc1cc2c(=O)n(-c3ccc(C(=O)NC(c4noc(=O)[nH]4)c4ccc(Cl)s4)cc3)c(=O)[nH]c2cc1F (stereo not shown) [Compound 50, N-((5-chlorothiophen-2-yl)(5-oxo-4,5-dihydro-1,2,4-oxadiazol-3-yl)methyl)-4-(7-fluoro-6-(methylamino)-2,4-dioxo-1,2-dihydroquinazolin-3(4H)-yl)benzamide]
[1]
  IC50: 0.05 to 0.5 µM
[2]; Homo sapiens, Platelet
  IC50: > 30 µM

## CNc1cc2c(cc1F)C(=O)N(c1ccc(C(=O)N(CC(=O)O)Cc3ccc(Cl)s3)cc1)CO2 [Compound 55]
[1]
  IC50: 0.05 to 0.5 µM
[2]; Homo sapiens, Platelet
  IC50: > 30 µM

## CNc1cc2c(cc1F)C(=O)N(c1ccc(C(=O)NC(C(=O)O)c3cccc(Cl)c3)cc1)CO2 (stereo not shown) [Compound 81, 2-(3-chlorophenyl)-2-(4-(6-fluoro-7-(methylamino)-4-oxo-2H-benzo[e][1,3]oxazin-3(4H)-yl)benzamido)acetic acid]
[1]
  IC50: 0.05 to 0.5 µM
[2]; Homo sapiens, Platelet
  IC50: > 30 µM

## CNc1cc2[nH]c(=O)n(-c3ccc(C(=O)NC(CC(=O)O)c4ccc(Cl)s4)cc3)c(=O)c2cc1F (stereo not shown) [Compound 27, 3-(5-chlorothiophen-2-yl)-3-(4-(6-fluoro-7-(methylamino)-2,4-dioxo-1,2-dihydroquinazolin-3(4H)-yl)benzamido)propanoic acid]
[1]
  IC50: 0.05 to 0.5 µM
[2]; Homo sapiens, Platelet
  IC50: > 30 µM

## CNc1cc2[nH]c(=O)n(-c3ccc(C(=O)NC(C(=O)O)c4ccc(Cl)s4)cc3)c(=O)c2cc1F (stereo not shown) [Compound 5, 2-(5-chlorothiophen-2-yl)-2-(4-(6-fluoro-7-(methylamino)-2,4-dioxo-1,2-dihydroquinazolin-3(4H)-yl)benzamido)acetic acid]
[1]
  IC50: < 0.05 µM
[2]
  IC50: 10 to 30 µM

## CNc1cc2c(cc1F)C(=O)N(c1ccc(C(=O)N[C@@H](C(=O)O)c3ccc(Cl)s3)cc1)CO2 [Compound 62, (S)-2-(5-chlorothiophen-2-yl)-2-(4-(6-fluoro-7-(methylamino)-4-oxo-2H-benzo[e][1,3]oxazin-3(4H)-yl)benzaamido)acetic acid]
[1]
  IC50: < 0.05 µM
[2]; Homo sapiens, Platelet
  IC50: > 30 µM

## CNc1cc2c(cc1F)C(=O)N(c1ccc(C(=O)NC(c3ccc(Cl)s3)c3nccs3)cc1)CO2 (stereo not shown) [Compound 82, N-((5-chlorothiophen-2-yl)(thiazol-2-yl)methyl)-4-(6-fluoro-7-(methylamino)-4-oxo-2H-benzo[e][1,3]oxazin-3(4H)-yl)benzamide]
[1]
  IC50: 0.05 to 0.5 µM
[2]; Homo sapiens, Platelet
  IC50: > 30 µM

## CNc1cc2[nH]c(=O)n(-c3ccc(C(=O)NC(C(=O)O)c4ccc(C)s4)cc3)c(=O)c2cc1F (stereo not shown) [Compound 19, 2-(4-(6-fluoro-7-(methylamino)-2,4-dioxo-1,2-dihydroquinazolin-3(4H)-yl)benzamido)-2-(5-methylthiophen-2-yl)acetic acid]
[1]
  IC50: 0.05 to 0.5 µM
[2]; Homo sapiens, Platelet
  IC50: < 10 µM

## CNc1cc2[nH]c(=O)n(-c3ccc(C(=O)NC(c4cccc(Cl)c4)c4nnn[nH]4)cc3)c(=O)c2cc1F (stereo not shown) [Compound 11, N-((3-chlorophenyl)(1H-tetrazol-5-yl)methyl)-4-(6-fluoro-7-(methylamino)-2,4-dioxo-1,2-dihydroquinazolin-3(4H)-yl)benzamide]
[1]
  IC50: 0.05 to 0.5 µM
[2]; Homo sapiens, Platelet
  IC50: > 30 µM

## CNc1cc2[nH]c(=O)n(-c3ccc(C(=O)NC(c4noc(=O)[nH]4)c4ccc(Cl)s4)cc3)c(=O)c2cc1F (stereo not shown) [Compound 21, N-((5-chlorothiophen-2-yl)(5-oxo-4,5-dihydro-1,2,4-oxadiazol-3-yl)methyl)-4-(6-fluoro-7-(methylamino)-2,4-dioxo-1,2-dihydroquinazolin-3(4H)-yl)benzamide]
[1]
  IC50: < 0.05 µM
[2]; Homo sapiens, Platelet
  IC50: < 10 µM

## CNc1cc2ccn(-c3ccc(C(=O)NC(C(=O)O)c4ccc(Cl)s4)cc3)c(=O)c2cc1F (stereo not shown) [Compound 90, 2-(5-chlorothiophen-2-yl)-2-(4-(7-fluoro-6-(methylamino)-1-oxoisoquinolin-2(1H)-yl)benzamido)acetic acid]
[1]
  IC50: < 0.05 µM
[2]; Homo sapiens, Platelet
  IC50: 10 to 30 µM
